Results on two compounds are retold here after article PMC5698704 (Chemmedchem, 2017).

In one series the target is CDK7/cyclinH/MAT1(h) (Homo sapiens, UniProt P50613). As to the kind of experiment: Merck Millipore KinaseProfiler. The format is biochemical.
The next series deals with CDK3/cyclinE(h) (Homo sapiens, UniProt Q00526). As to the kind of experiment: Merck Millipore KinaseProfiler. The format is biochemical. Conditions: IC50 CDK3/CycE(h), Millipore panel, 10 µM ATP.
A further series deals with CDK9/cyclin T1(h) (Homo sapiens, UniProt P50750). The series can be described thus: Merck Millipore KinaseProfiler. In kind it is biochemical.
Series [1] in a line: Blood/plasma partitioning in rats. The format is in vitro ADME. Conditions: rat, blood and plasma.
Another series addresses CDK1/cyclinB(h) (Homo sapiens, UniProt P06493). The series can be described thus: Merck Millipore KinaseProfiler. Conditions: IC50 CDK1/CycB(h), Millipore panel, 10 µM ATP. In kind it is biochemical.
Another series deals with rat hepatocytes. The series can be described thus: Metabolic stability in rat hepatocytes. In kind it is in vitro ADME. Conditions: predicted blood clearance from rat hepatocytes, 1 μM.
A short description of series [2]: Metabolic stability in rat liver microsomes. The format is in vitro ADME. Conditions: predicted blood clearance from rat liver microsomes.
The test system of the next series is CYP3A4. The series can be described thus: CYP induction in cultured human hepatocytes. The format is in vitro ADME.
The target of another series is CDK6/cyclinD3(h) (Homo sapiens, UniProt Q00534). The series can be described thus: Merck Millipore KinaseProfiler. In kind it is biochemical.
A further series has as its target CDK2/cyclinE(h) (Homo sapiens, UniProt P24941). The series can be described thus: Merck Millipore KinaseProfiler. Conditions: IC50 CDK2/CycE(h), Millipore panel, 10 µM ATP. In kind it is biochemical.
The test system of the next series is CDK2/CycE. As to the kind of experiment: CDK2/CycE kinase assay. In kind it is biochemical, human. Conditions: ratio of IC50 values CDK2/CDK9, in-house assays.
Series [3] in a line: Caco‐2 permeability assay. The format is in vitro ADME. Conditions: human, Caco-2, pH 7.2. On the technique in general: Passage across Caco-2 layers is used to estimate intestinal permeability.
The next series has as its system HeLa cells. As to the kind of experiment: Proliferation assay HeLa. In kind it is cell-based. Conditions: Homo sapiens, 96 h, read-out: HeLa IC50.
Series [4] deals with CYP1A2, CYP2C8, CYP2C9, CYP2D6, CYP3A4. As to the kind of experiment: CYP inhibition in human liver microsomes. The format is in vitro ADME. In general terms: Microsomes from liver hold many membrane-bound enzymes, among them those of drug oxidation.
In the next series the test system is MOLM‐13 cells. The series can be described thus: Proliferation assay MOLM‐13. Conditions: Homo sapiens, MOLM-13, 96 h, read-out: MOLM‐13 IC50. The format is cell-based.
The target in another series is CDK5/p35(h) (Homo sapiens, UniProt Q00535). The series can be described thus: Merck Millipore KinaseProfiler. The format is biochemical. Conditions: Millipore panel, 10 µM ATP.
Series [5] can be described thus: Equilibrium shake flask solubility assay. In kind it is physicochemical. Conditions: aqueous solubility, phosphate buffer pH 6.5, 24 h; solid state not characterized.
Another series has as its target T1, Flt3(h) (Homo sapiens, UniProt P36888).
T1 sequence (P36888 27-993): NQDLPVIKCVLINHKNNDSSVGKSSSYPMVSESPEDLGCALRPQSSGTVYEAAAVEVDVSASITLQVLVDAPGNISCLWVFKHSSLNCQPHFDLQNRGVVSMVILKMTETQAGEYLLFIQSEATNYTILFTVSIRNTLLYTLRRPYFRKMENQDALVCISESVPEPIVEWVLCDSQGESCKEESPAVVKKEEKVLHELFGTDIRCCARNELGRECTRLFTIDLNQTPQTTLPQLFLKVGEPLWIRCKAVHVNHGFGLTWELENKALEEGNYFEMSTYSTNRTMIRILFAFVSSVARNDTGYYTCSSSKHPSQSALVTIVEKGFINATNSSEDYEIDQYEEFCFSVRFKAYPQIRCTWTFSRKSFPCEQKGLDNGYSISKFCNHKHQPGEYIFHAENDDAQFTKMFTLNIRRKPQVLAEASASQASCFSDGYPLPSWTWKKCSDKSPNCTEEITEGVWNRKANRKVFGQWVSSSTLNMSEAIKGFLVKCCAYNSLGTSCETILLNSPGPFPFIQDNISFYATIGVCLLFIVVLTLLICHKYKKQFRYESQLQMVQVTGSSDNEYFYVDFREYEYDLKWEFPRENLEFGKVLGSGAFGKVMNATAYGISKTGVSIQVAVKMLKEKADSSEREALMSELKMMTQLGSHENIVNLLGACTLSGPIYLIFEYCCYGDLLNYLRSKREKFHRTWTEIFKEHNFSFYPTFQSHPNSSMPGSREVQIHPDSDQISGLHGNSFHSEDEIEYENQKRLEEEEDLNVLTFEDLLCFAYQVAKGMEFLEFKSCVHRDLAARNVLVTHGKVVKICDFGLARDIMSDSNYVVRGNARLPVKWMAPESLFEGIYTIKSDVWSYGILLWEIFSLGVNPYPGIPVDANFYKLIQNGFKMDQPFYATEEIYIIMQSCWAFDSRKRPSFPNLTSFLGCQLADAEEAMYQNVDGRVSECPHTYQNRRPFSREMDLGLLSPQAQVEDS
As to the kind of experiment: Merck Millipore KinaseProfiler. In kind it is biochemical. Conditions: Merck Millipore KinaseProfiler panel.

The subject of another series is MV4‐11 human AML model. The series can be described thus: MV4‐11 human AML xenograft model in rats. In kind it is in vivo, rat. (In general: In xenograft studies the graft and the host belong to different species.)
A short description of series [6]: MV4‐11 human AML xenograft model in rats. The format is in vivo, rat. Conditions: female, athymic nude, rat, in vivo, po, 12 mg kg^−1.
The next series deals with MOLM‐13 human AML model. As to the kind of experiment: MOLM‐13 human AML xenograft model in mice. The format is in vivo, mouse. Conditions: throughout the study, all BAY 1143572 regimens.
The next series has as its system MV4‐11 cells. The series can be described thus: Antiproliferative activity MV4‐11. In kind it is cell-based. Conditions: Homo sapiens, MV4-11, read-out: MV4‐11 IC50.

Structures are written as SMILES. pIC50: −log10 of the molar value. Where “and” joins values, the source holds several entries; their conditions need not be identical. Equal entries are not always repeated.

CDK9/cyclin T1(h), sequence (P50750 whole entry): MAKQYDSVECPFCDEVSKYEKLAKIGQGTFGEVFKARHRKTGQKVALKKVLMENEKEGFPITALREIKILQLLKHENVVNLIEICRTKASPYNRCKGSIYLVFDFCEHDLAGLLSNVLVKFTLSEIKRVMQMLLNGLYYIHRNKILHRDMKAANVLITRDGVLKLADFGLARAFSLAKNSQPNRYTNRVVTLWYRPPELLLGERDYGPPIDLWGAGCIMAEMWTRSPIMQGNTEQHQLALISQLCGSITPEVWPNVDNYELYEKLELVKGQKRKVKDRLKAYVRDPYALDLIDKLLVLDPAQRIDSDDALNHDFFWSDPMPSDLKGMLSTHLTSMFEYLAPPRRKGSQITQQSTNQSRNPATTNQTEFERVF
CDK9/cyclin T1(h), sequence (O60563 whole entry partner): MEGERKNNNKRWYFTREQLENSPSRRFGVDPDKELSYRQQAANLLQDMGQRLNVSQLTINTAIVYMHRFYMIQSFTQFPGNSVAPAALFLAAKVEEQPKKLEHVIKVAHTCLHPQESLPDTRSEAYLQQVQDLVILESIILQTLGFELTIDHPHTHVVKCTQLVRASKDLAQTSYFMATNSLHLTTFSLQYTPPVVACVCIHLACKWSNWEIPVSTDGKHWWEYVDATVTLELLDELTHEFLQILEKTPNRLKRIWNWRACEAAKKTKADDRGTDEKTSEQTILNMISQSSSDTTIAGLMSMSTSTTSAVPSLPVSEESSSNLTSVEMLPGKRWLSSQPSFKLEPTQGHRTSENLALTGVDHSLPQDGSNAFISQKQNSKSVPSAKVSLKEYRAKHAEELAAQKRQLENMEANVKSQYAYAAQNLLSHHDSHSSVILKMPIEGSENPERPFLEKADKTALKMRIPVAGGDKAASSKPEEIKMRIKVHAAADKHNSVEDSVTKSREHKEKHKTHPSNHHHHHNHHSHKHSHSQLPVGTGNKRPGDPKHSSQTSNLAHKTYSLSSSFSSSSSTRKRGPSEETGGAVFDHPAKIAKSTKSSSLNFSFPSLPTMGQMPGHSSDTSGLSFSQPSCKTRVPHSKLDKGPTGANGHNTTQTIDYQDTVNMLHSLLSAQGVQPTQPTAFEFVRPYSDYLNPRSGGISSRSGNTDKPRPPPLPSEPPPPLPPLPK
CDK3/cyclinE(h), sequence (Q00526 whole entry): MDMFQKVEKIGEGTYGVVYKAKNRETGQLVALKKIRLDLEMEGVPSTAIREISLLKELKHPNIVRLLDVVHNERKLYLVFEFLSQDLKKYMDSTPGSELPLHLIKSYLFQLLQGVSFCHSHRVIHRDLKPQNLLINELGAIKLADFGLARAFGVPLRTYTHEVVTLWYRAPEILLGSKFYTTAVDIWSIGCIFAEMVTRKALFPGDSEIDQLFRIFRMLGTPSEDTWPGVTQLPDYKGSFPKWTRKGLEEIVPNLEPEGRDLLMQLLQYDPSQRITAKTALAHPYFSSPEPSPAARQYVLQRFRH
CDK3/cyclinE(h), sequence (P24864 whole entry, further chain): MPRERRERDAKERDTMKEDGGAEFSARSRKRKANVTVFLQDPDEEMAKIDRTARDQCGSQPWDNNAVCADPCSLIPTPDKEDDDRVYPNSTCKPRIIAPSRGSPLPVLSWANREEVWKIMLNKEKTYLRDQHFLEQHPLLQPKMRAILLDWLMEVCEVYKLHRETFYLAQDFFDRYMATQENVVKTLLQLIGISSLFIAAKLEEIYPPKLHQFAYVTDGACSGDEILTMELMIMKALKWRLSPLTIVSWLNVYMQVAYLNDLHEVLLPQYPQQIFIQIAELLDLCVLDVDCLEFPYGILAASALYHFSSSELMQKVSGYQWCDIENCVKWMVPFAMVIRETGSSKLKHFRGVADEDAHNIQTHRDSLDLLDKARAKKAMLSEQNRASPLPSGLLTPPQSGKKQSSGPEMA
CDK6/cyclinD3(h), sequence (Q00534 whole entry): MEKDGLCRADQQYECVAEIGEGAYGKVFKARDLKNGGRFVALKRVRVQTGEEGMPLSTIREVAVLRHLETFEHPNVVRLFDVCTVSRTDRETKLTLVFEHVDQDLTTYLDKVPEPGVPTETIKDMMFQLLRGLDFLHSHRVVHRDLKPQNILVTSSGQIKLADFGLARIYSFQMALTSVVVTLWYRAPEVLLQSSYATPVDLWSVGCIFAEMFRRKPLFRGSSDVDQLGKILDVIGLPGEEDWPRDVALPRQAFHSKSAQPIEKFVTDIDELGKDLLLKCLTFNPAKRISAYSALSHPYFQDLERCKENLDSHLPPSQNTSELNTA
CDK6/cyclinD3(h), sequence (P30281 whole entry partner): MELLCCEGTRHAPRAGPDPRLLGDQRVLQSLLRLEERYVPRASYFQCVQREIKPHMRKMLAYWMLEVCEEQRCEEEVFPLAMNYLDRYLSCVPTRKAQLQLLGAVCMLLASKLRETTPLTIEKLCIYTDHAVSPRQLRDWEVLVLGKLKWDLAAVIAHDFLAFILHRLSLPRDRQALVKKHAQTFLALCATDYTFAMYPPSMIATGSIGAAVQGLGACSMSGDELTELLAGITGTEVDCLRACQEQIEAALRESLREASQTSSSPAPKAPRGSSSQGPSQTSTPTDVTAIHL
CDK7/cyclinH/MAT1(h), sequence (P50613 whole entry): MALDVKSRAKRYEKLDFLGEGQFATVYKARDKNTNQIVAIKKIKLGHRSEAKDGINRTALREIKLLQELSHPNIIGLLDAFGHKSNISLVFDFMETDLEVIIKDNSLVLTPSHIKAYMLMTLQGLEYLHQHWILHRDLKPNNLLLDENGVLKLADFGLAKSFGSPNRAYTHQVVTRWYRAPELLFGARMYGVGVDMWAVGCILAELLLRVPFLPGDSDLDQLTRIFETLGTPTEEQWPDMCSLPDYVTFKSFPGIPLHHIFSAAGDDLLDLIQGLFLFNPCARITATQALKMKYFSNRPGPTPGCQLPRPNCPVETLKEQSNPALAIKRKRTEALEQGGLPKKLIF
CDK7/cyclinH/MAT1(h), sequence (P51946 whole entry partner): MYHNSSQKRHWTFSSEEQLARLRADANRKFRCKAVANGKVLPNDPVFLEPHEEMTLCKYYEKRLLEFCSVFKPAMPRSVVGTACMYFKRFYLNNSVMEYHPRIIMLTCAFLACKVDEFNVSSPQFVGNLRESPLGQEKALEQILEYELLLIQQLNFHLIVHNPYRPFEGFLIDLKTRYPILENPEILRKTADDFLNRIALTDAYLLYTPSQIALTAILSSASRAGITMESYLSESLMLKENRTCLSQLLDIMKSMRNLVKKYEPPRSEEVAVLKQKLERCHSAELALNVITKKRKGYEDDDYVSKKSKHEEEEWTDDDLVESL
CDK7/cyclinH/MAT1(h), sequence (P51948 whole entry partner): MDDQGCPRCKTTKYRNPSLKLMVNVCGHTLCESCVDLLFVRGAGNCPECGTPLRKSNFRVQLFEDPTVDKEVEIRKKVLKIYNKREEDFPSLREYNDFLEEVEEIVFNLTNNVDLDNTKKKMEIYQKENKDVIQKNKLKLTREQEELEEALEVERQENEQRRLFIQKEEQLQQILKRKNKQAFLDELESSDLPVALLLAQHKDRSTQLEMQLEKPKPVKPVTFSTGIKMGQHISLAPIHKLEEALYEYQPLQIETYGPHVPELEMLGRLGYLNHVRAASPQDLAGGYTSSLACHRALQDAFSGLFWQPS
CDK1/cyclinB(h), sequence (P14635 whole entry): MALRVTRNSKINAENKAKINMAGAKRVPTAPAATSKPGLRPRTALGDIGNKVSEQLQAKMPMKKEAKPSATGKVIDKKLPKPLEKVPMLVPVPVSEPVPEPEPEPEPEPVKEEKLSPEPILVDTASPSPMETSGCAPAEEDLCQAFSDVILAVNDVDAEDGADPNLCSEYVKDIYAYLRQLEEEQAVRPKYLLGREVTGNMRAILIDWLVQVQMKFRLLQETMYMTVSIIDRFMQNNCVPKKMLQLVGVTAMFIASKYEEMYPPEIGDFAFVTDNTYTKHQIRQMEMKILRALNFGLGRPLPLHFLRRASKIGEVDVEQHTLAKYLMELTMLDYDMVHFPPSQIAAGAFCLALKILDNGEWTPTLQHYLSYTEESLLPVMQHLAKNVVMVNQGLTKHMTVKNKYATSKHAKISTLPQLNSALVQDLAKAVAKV
CDK1/cyclinB(h), sequence (P06493 whole entry): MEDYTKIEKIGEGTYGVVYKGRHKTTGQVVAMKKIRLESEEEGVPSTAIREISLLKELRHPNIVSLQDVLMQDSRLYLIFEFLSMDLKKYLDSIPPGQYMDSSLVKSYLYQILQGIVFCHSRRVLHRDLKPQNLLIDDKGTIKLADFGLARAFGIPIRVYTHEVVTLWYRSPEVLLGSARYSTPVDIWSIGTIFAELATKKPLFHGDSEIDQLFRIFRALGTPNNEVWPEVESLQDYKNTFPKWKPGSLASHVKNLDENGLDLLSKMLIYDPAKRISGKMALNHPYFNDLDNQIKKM
CDK5/p35(h), sequence (Q00535 whole entry): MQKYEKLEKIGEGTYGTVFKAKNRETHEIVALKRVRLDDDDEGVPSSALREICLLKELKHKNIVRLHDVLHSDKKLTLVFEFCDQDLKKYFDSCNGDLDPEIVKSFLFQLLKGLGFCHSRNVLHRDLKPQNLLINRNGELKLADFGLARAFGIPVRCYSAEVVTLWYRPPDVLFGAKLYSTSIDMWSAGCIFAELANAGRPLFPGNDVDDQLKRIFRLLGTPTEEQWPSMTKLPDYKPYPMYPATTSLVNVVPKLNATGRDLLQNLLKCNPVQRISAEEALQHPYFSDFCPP
CDK5/p35(h), sequence (Q15078 whole entry partner): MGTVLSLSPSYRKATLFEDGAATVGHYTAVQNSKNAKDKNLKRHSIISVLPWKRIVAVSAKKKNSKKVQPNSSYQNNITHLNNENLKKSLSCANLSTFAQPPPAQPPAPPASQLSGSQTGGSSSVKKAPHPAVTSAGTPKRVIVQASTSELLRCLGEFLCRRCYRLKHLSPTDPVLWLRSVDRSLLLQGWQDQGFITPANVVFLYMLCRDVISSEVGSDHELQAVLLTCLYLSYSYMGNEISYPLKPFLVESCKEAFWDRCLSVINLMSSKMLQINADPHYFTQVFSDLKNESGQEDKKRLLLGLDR

As for `COc1cc(F)ccc1-c1ncnc(Nc2cccc(CS(N)(=O)=O)c2)n1` [BAY‐958, 1‐(3‐{[4‐(4‐Fluoro‐2‐methoxyphenyl)‐1,3,5‐triazin‐2‐yl]amino}phenyl)methanesulfonamide], the pIC50 was under 5.00 at CDK7/cyclinH/MAT1(h); 6.24 on CDK3/cyclinE(h); 8.30 on CDK9/cyclin T1(h); 6.16 against CDK1/cyclinB(h); 5.36 against CDK6/cyclinD3(h); 6.33 against CDK2/cyclinE(h). Moreover, the pIC50 in the series with HeLa cells is 6.00; in series [4] it was under 4.70; with MOLM‐13 cells it was 6.55; against CDK5/p35(h) it was 6.10. In addition, the “selectivity vs. other CDKs” value at CDK9/cyclin T1(h) (Millipore panel, relative to CDK9/CycT1 IC50) is given as over 90. Also, in series [1], the blood plasma ratio came to 3. Moreover, the “CLb, ratHep” value in the series on rat hepatocytes is 0.33 L/h/kg. The “CLb, ratLM” value in series [2] is 0.48 L/h/kg. Further, in the series on CYP3A4, the “Induction of CYP3A4 in vitro” value is “not observed”. In addition, the “Selectivity vs. CDK2, ratio of IC50 values” in the series on CDK2/CycE came out at 98. For the same compound, in series [3], the efflux ratio at 2 h, 2 μM stood at 15. Further, in the series “Rat PK study in vivo”, the “CLb, rat in vivo, i.v.” value is 0.5 L/h/kg and 0.50 L/h/kg. For the same compound, the half-life in the series “Rat PK study in vivo” (male, Wistar, plasma, iv) is 42 min. Moreover, the “F, rat in vivo, p.o.” value in “Rat PK study in vivo” (oral bioavailability) amounted to 10%.

For the compound `COc1cc(F)ccc1-c1ncnc(Nc2cccc(C[S@](C)(=N)=O)c2)n1` [BAY 1143572, (R)‐4‐(4‐Fluoro‐2‐methoxyphenyl)‐N‐{3‐[(S‐methylsulfonimidoyl)methyl]phenyl}‐1,3,5‐triazin‐2‐amine], the pIC50 on CDK3/cyclinE(h) was 6.05; in the series with MV4‐11 cells, 6.05; in the series with HeLa cells it was 6.04; in series [4], under 4.70; with MOLM‐13 cells it was 6.51. The “Sw, pH 6.5” value in series [5] came to 479 mg L^−1. For the same compound, on Flt3(h), the “activity against Flt3” value is on record as “did not show relevant activity”. In the series on CYP3A4, the “Induction of CYP3A4 in vitro” value is on record as “not observed”. For the same compound, in the series with MV4‐11 human AML model (12 mg kg^−1 daily oral for 14 days), the tumor response entry was “almost complete tumor remission”. Also, the “tumor regrowth at the conclusion of the experiment” value with MV4‐11 human AML model (57 days after initial inoculation, after 12 mg kg^−1 daily for 14 days) is reported as “no tumor regrowth in nine of the 12 test animals”. In addition, the MTD at 14 days in series [6] amounted to 12 mg/kg. Also, the “mean body weight reduction” value with MOLM‐13 human AML model is listed as “less than 10%”. Also, in “Rat PK study in vivo”, the “CLb, rat in vivo, i.v.” value worked out at 1.1 L/h/kg.

By pIC50 is commonly meant the negative decadic logarithm of the IC50, by convention in mol/L. Usually efflux ratio stands for a quotient of directional permeabilities that is used to spot active efflux. By half-life is commonly meant how long it takes for the measured level to halve. Lower therefore signals rapid decline.
